The values below come from patent US11571480B2, “Multi-ligand drug conjugates and uses thereof” (priority 2015, dated 2023).

Square brackets hold non-standard residues; d marks the D form. Peptide text beside a SMILES is read from it. * marks the point of attachment. Dolaproine = CO[C@@H]([C@@H]1CCCN1)[C@@H](C)C(=O)O; Dil = CC[C@H](C)[C@H](NC)[C@@H](CC(=O)O)OC; X1 = C[C@@H](N*)[C@@H](O)c1ccccc1; NMeV = CN[C@H](C(=O)O)C(C)C

Holding throughout (type): cell-based
Data set [1] deals with human lung cancer cell H1299. The experiment in a line: Cytotoxicity test of conjugate LDC10H. The note with it: H1299, incubated 15-30 min, then 2-3 days. How it is done: (§1) Culture medium: RPMI 1640 Medium, no folic acid
(§2) 1) human lung cancer cell H1299, ovarian cancer cell SKOV3, breast cancer cell line HCC1954, and human lung cancer cell H460 were incubated at 37° C., 5% CO2 in RPMI 1640 medium containing 10% fetal bovine serum, the cells were passaged every 2-3 days.
(§3) 2) human lung cancer cell H1299, ovarian cancer cell SKOV3, breast cancer cell line HCC1954, and human lung cancer cell H460 were plated at 1×10^3 cells per well (96-well plate) and incubated for 8-12 h at 37° C., 5% CO2.
(§4) 3) Stock solutions of LDC conjugates or control were prepared in PBS solution. 100 μL/well of serially diluted LDC conjugates or control was added to the cells in the plate and incubated for 15-30 min at 37° C., 5% CO2. The culture medium in the wells was then removed by aspiration and the cells were incubated in fresh culture medium without conjugates (150 μL/well) for 2-3 days at 37° C., 5% CO2.
(§5) 4) CellTiter 96® Aqueous One Solution Cell Proliferation Assay (Promega) was added to each well to measure the amount of […] cells, and the plate was incubated in an incubator for 1 h at 37° C., 5% CO2.
(§6) 5) the plate was read at 490 nm on a microplate reader, and the cell survivals were compared for cells with or without the treatment of LDC conjugates. The LDC drug concentrations that are required for 50% cell death (IC50 values) were determined.

Data set [2] deals with human lung cancer cell H460. Put plainly: Cytotoxicity test of conjugate LDC10H. The note with it: H460, incubated 15-30 min, then 2-3 days. The method, then:
as §1, §2, §3, §4, §5, §6

Data set [3] concerns melanoma cell line A375. The experiment in a line: Cytotoxicity test of conjugate LDC10BR. The note with it: A375, incubated 15-30 min, then 2-3 days. The method, then:
as §1
(§7) 1) human nasopharyngeal cancer cell line KB, melanoma cell line A375, and human lung cancer cell H460 were incubated at 37° C., 5% CO2 in RPMI 1640 medium containing 10% fetal bovine serum, the cells were passaged every 2-3 days.
(§8) 2) human nasopharyngeal cancer cell line KB, melanoma cell line A375, and human lung cancer cell H460 were plated at 1×10^3 cells per well (96-well plate) and incubated for 8-12 h at 37° C., 5% CO2.
as §4, §5, §6

In data set [4] the test system is human lung cancer cell H460. The experiment in a line: Cytotoxicity test of conjugate LDC10BR. The note with it: H460, incubated 15-30 min, then 2-3 days. The method, then:
as §1, §7, §8, §4, §5, §6

Data set [5] concerns human nasopharyngeal cancer cell line KB. Put plainly: Cytotoxicity test of conjugate LDC10BR. The note with it: incubated 15-30 min, then 2-3 days. How it is done: as §1, §7, §8, §4, §5, §6
Data set [6] relates to human breast cancer cell SK-BR-3. The experiment in a line: Cytotoxicity test of conjugate LDC10B. The note with it: SK-BR-3, Incubation Time 30 min. How it is done:
as §1
(§9) 1) human nasopharyngeal cancer cell line KB, melanoma cell line A375, human lung cancer cell H1299, chronic myeloid leukemia cell line K562, human lung cancer cell H460, ovarian cancer cell SKOV3, breast cancer cell line HCC1954, human gastric cancer cell N87, and human breast cancer cell SK-BR-3 were incubated at 37° C., 5% CO2 in RPMI 1640 medium containing 10% fetal bovine serum, the cells were passaged every 2-3 days.
(§10) 2) human nasopharyngeal cancer cell line KB, melanoma cell line A375, human lung cancer cell H1299, chronic myeloid leukemia cell line K562, human lung cancer cell H460, ovarian cancer cell SKOV3, breast cancer cell line HCC1954, human gastric cancer cell N87, and human breast cancer cell SK-BR-3 were plated at 1×10^3 cells per well (96-well plate) and incubated for 8-12 h at 37° C., 5% CO2.
(§11) 3) Stock solutions of LDC conjugates or controls were prepared in PBS solution. 100 μL/well of serially diluted LDC conjugates or controls was added to the test cells in the plates and incubated for 15-30 min at 37° C., 5% CO2. The culture medium in the wells was then removed by aspiration and the test cells were incubated in fresh culture medium without conjugates (150 μL/well) for 2-3 days at 37° C., 5% CO2.
(§12) 4) CellTiter 96® Aqueous One Solution Cell Proliferation Assay (Promega) was added to each well to measure the amount of […] cells, and each plate was incubated in an incubator for 1 h at 37° C., 5% CO2.
(§13) 5) Each plate was read at 490 nm on a microplate reader, and the cell survivals were compared for test cells with or without the treatment of LDC conjugates. The LDC drug concentrations that are required for 50% cell death (IC50 values) were determined.

In data set [7] the test system is human gastric cancer cell N87. The experiment in a line: Cytotoxicity test of conjugate LDC10B. The note with it: N87, Incubation Time 30 min. How it is done: as §1, §9, §10, §11, §12, §13
For data set [8], the system named is chronic myeloid leukemia cell line K562. The experiment in a line: Cytotoxicity test of conjugate LDC10B. The note with it: K562, Incubation Time 30 min. How it is done:
as §1, §9, §10, §11, §12, §13

In data set [9] the test system is human lung cancer cell H1299. Put plainly: Cytotoxicity test of conjugate LDC10B. The note with it: H1299, Incubation Time 30 min. How it is done: as §1, §9, §10, §11, §12, §13
The test system of data set [10] is melanoma cell line A375. The experiment in a line: Cytotoxicity test of conjugate LDC10B. The note with it: A375, Incubation Time 15 min. How it is done: as §1, §9, §10, §11, §12, §13
For data set [11], the system named is human lung cancer cell H460. Put plainly: Cytotoxicity test of conjugate LDC10B. The note with it: H460, Incubation Time 30 min. The method, then: as §1, §9, §10, §11, §12, §13
In data set [12] the test system is human nasopharyngeal cancer cell line KB. The experiment in a line: Cytotoxicity test of conjugate LDC10B. The note with it: Incubation Time 15 min. The method, then: as §1, §9, §10, §11, §12, §13
Data set [13] deals with human neuroblastoma cell line SH-SY5Y. Put plainly: Cytotoxicity test of conjugate LDC12B. The note with it: incubated 15-30 min, then 2-3 days. The method, then: as §1
(§14) 1) human endometrial cancer cell HEC-1A, human gastric cancer cell line GTL-16, human colon carcinoma HCT-116, human neuroblastoma cell line SH-SY5Y were incubated at 37° C., 5% CO2 in RPMI 1640 medium containing 10% fetal bovine serum, the cells were passaged every 2-3 days.
(§15) 2) human endometrial cancer cell HEC-1A, human gastric cancer cell line GTL-16, Human colon carcinoma HCT-116, human neuroblastoma cell line SH-SY5Y were plated at 1×10^3 cells per well (96-well plate) and incubated for 8-12 h at 37° C., 5% CO2.
as §4, §5, §6

The test system of data set [14] is human endometrial cancer cell HEC-1A. Put plainly: Cytotoxicity test of conjugate LDC12B. The note with it: incubated 15-30 min, then 2-3 days. How it is done:
as §1, §14, §15, §4, §5, §6

In data set [15] the test system is human colon carcinoma HCT-116. The experiment in a line: Cytotoxicity test of conjugate LDC12B. The note with it: HCT-116, incubated 15-30 min, then 2-3 days. The method, then: as §1, §14, §15, §4, §5, §6
The test system of data set [16] is human gastric cancer cell line GTL-16. The experiment in a line: Cytotoxicity test of conjugate LDC12B. The note with it: GTL-16, incubated 15-30 min, then 2-3 days. The method, then:
as §1, §14, §15, §4, §5, §6

Data set [17] relates to melanoma cell line A375. The experiment in a line: Cytotoxicity test of conjugate LDC1013. The note with it: A375, incubated 15-30 min, then 2-3 days. How it is done: as §1, §7, §8, §4, §5, §6
In data set [18] the test system is human lung cancer cell H460. Put plainly: Cytotoxicity test of conjugate LDC1013. The note with it: H460, incubated 15-30 min, then 2-3 days. The method, then: as §1, §7, §8, §4, §5, §6
In data set [19] the test system is human nasopharyngeal cancer cell line KB. The experiment in a line: Cytotoxicity test of conjugate LDC1013. The note with it: incubated 15-30 min, then 2-3 days. The method, then: as §1, §7, §8, §4, §5, §6

A word on the IC50: it is the concentration that gives 50% inhibition. Low values mean greater potency, high ones weaker potency.

In the case of `CC[C@H](C)[C@@H]([C@@H](CC(=O)N1CCC[C@H]1[C@H](OC)[C@@H](C)C(=O)N[C@H](C)[C@@H](O)c1ccccc1)OC)N(C)C(=O)[C@@H](NC(=O)[C@@H](NC)C(C)C)C(C)C` [MMAE] (H-[NMeV]V[Dil][Dolaproine]-X1), the IC50 in [1] came out at 0.71 nM; in [2] it was 0.56 nM; in the data set with melanoma cell line A375 [3] it was 85 nM; in data set [4], 37 nM; in data set [5], 20 nM; in [6], 0.52 nM. For the same compound, the IC50 in data set [7] turned out to be 0.68 nM; in [8] it was 0.54 nM; in [9] it was 0.86 nM; with melanoma cell line A375 [10] it was 100 nM; in data set [11], 0.77 nM; in [12], 89 nM. The IC50 was determined as 24 nM in data set [13]; 8.74 nM in data set [14]; 12.7 nM in [15]; 6.38 nM in data set [16]; 85 nM in the data set with melanoma cell line A375 [17]; 37 nM in [18]. For the same compound, half-maximal inhibition in data set [19] (IC50) required 20 nM.
